Tests used:
[1] = molecular target: T1, N-formyl peptide receptor (Homo sapiens, UniProt P21462); assay: Effect of guanine nucleotides on receptor affinity states of fast membranes; type: binding
T1 sequence (P21462 1-350): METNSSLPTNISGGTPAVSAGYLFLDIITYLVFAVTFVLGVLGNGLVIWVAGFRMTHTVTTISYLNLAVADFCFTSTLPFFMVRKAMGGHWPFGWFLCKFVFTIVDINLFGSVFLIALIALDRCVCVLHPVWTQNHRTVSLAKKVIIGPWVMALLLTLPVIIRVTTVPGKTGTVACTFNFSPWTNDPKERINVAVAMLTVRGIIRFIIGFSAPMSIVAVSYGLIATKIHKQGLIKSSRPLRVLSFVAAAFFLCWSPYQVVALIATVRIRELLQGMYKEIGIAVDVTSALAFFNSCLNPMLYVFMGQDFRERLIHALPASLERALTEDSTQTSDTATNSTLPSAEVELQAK

[2] = molecular target: T1, N-formyl peptide receptor; type: binding; conditions: Table II; fast microsomes, unstimulated; mean, SD, n = 5

## Nc1nc2c(ncn2[C@@H]2O[C@H](COP(=O)(O)OP(=O)(O)OP(=O)(O)O)[C@@H](O)[C@H]2O)c(=O)[nH]1 [GTP]
[1]; membranes from unstimulated cells, nucleotide 10 μM where stated
  Effect on state B dissociation rate / conversion to state A: converted to the fastest ligand-dissociation state (state A)

## Nc1nc2c(ncn2[C@@H]2O[C@H](COP(=O)(O)OP(=O)(O)OP(O)(O)=S)[C@@H](O)[C@H]2O)c(=O)[nH]1 [GTP-y-S]
[1]; fast membranes from Fl-peptide-stimulated cells, GTP-γ-S, listed as GTP-gamma-S
  Effect on state C receptor: insensitive

## N-formyl-Nle-Leu-Phe-Nle-Tyr- Lys-fluorescein [Fl-peptide]
[2]
  Percentage of receptor associated with State B: 47%

— PMC2114737 (The Journal of Cell Biology, 1987)
